Like-named read-outs stand apart in the source and are kept apart here.
Experiments:
[1] = Plasma and Brain Levels after oral dosing; assay type: in vivo; conditions: fed
Procedure: Example 1 is orally dosed to male mouse from 1 mg/kg to 30 mg/kg in fed condition, and the plasma and brain concentration are determined 1.5 hr post-dose. The fraction unbound of the compound is determined in vitro as described previously (Zamek-Gliszczynski M J, Ruterbories K J, Ajamie R T, Wickremsinhe E R, Pothuri L, Rao M V, Basavanakatti V N, Pinjari J, Ramanathan V K, Chaudhary A K (2011) Validation of 96-well equilibrium dialysis with non-radiolabeled drug for definitive measurement of protein binding and application to clinical development of highly-bound drugs. J Pharm Sci 100: 2498-2507). The ratio (Kpuu) of unbound brain concentration (Cu,brain) vs. unbound plasma concertation (Cu,plasma) is determined as described previously (Raub T J, Wishart G N, Kulanthaivel P, Staton B A, Ajamie R T, Sawada G A, Gelbert L M, Shannon H E, Sanchez-Martinez C, De Dios A (2015) Brain Exposure of Two Selective Dual CDK4 and CDK6 Inhibitors and the Antitumor Activity of CDK4 and CDK6 Inhibition in Combination with Temozolomide in an Intracranial Glioblastoma Xenograft. Drug Metab Dispos. 43:1360-71). The data presented below for Example 1 are averages from 3 animals at each dose. “Con.” refers to concentration. […]

normal rats = assay: In vivo tolerability in normal rats; conditions: broad dose range
Description: Compounds of the invention, for instance Example 1, show an advantageous combination of pharmacological properties, such as potentiation of human D1 receptor signaling in response to dopamine, high oral in vivo availabilty, in vivo efficacy in locomotor activation of animals that are habituated to the environment, and a favorable toxicity profile in preclinical testing. […].

[2] = 3 mg/kg oral, male mouse, 1.5 hr
[3] = 3 mg/kg oral, male mouse, 1.5 hr, read-out: Brain con.
[4] = 3 mg/kg oral, male mouse, 1.5 hr, read-out: Cu, brain
[5] = 3 mg/kg oral, male mouse, 1.5 hr, read-out: Cu, plasma
[6] = 10 mg/kg oral, male mouse, 1.5 hr
[7] = 10 mg/kg oral, male mouse, 1.5 hr, read-out: Brain con.
[8] = 10 mg/kg oral, male mouse, 1.5 hr, read-out: Cu, brain
[9] = 10 mg/kg oral, male mouse, 1.5 hr, read-out: Cu, plasma
[10] = 30 mg/kg oral, male mouse, 1.5 hr
[11] = 30 mg/kg oral, male mouse, 1.5 hr, read-out: Brain con.
[12] = 30 mg/kg oral, male mouse, 1.5 hr, read-out: Cu, brain
[13] = 30 mg/kg oral, male mouse, 1.5 hr, read-out: Cu, plasma
[14] = brain/plasma, 3 mg/kg oral, male mouse, 1.5 hr, read-out: Kpuu (Cu,brain vs. Cu,plasma)
[15] = brain/plasma, 10 mg/kg oral, male mouse, 1.5 hr, read-out: Kpuu (Cu,brain vs. Cu,plasma)
[16] = brain/plasma, 30 mg/kg oral, male mouse, 1.5 hr, read-out: Kpuu (Cu,brain vs. Cu,plasma)

Compound	Plasma con. [1, 2] [nM]	concentration at 1 h [1, 3] [nM]	concentration at 1 h [1, 4] [nM]	concentration at 1 h [1, 5] [nM]	Plasma con. [1, 6] [nM]	concentration at 1 h [1, 7] [nM]	concentration at 1 h [1, 8] [nM]	concentration at 1 h [1, 9] [nM]	Plasma con. [1, 10] [nM]	concentration at 1 h [1, 11] [nM]	concentration at 1 h [1, 12] [nM]	concentration at 1 h [1, 13] [nM]	Kp uu [1, 14]	Kp uu [1, 15]	Kp uu [1, 16]	further results
C[C@H]1c2cccc(-c3cn[nH]c3)c2C[C@H](CO)N1C(=O)Cc1c(Cl)cccc1Cl [Example 8, 2-(2,6-dichlorophenyl)-1-((1S,3R)-3-(hydroxymethyl)-1-methyl-5-(1H-pyrazol-4-yl)-3,4-dihydroisoquinolin-2(1H)-yl)ethan-1-one]	87.4	66.3	0.66	2.71	901	267	2.67	27.9	10321	2391	23.9	320	0.24	0.1	0.07	Kp uu at 1 h ([1]; brain/plasma, 20 mg/kg oral, male mouse, 1.5 hr, read-out: Kpuu (Cu,brain vs. Cu,plasma)): 0.1; Kp uu at 1 h ([1]; brain/plasma, 60 mg/kg oral, male mouse, 1.5 hr, read-out: Kpuu (Cu,brain vs. Cu,plasma)): 0.08; concentration at 1 h ([1]; male, mouse, brain, oral, 20 mg/kg, 20 mg/kg oral, 1.5 hr, read-out: Brain con.): 721 nM; concentration at 1 h ([1]; male, mouse, brain, oral, 20 mg/kg, 20 mg/kg oral, 1.5 hr, read-out: Cu, brain): 7.21 nM; concentration at 1 h ([1]; male, mouse, brain, oral, 60 mg/kg, 60 mg/kg oral, 1.5 hr, read-out: Brain con.): 5000 nM; concentration at 1 h ([1]; male, mouse, brain, oral, 60 mg/kg, 60 mg/kg oral, 1.5 hr, read-out: Cu, brain): 50 nM; concentration at 1 h ([1]; male, mouse, plasma, oral, 20 mg/kg, 20 mg/kg oral, 1.5 hr, read-out: Cu, plasma): 75.7 nM; concentration at 1 h ([1]; male, mouse, plasma, oral, 20 mg/kg, 20 mg/kg oral, 1.5 hr, read-out: Plasma con.): 2440 nM; concentration at 1 h ([1]; male, mouse, plasma, oral, 60 mg/kg, 60 mg/kg oral, 1.5 hr, read-out: Cu, plasma): 622 nM; concentration at 1 h ([1]; male, mouse, plasma, oral, 60 mg/kg, 60 mg/kg oral, 1.5 hr, read-out: Plasma con.): 20100 nM
C[C@H]1c2cccc(-c3cnn(C)c3)c2C[C@H](CO)N1C(=O)Cc1c(Cl)cccc1Cl [Example 1, 2-(2,6-dichlorophenyl)-1-((1S,3R)-3-(hydroxymethyl)-1-methyl-5-(1-methyl-1H-pyrazol-4-yl)-3,4-dihydroisoquinolin-2(1H)-yl)ethan-1-one]	86.6	60	1.5	2.34	120	57.6	1.44	3.23	1660	794	19.9	44.9	1.06	0.44	0.65	Cu, brain ([1]; 1 mg/kg oral, male mouse, 1.5 hr): BQL; Brain con. ([1]; 1 mg/kg oral, male mouse, 1.5 hr, BQL = below 1 ng/mg tissue): BQL; Kp uu at 1.5 h ([1]; brain/plasma, 6 mg/kg oral, male mouse, read-out: Kpuu (Cu,brain vs. Cu,plasma)): 0.65; concentration at 1.5 h ([1]; male, mouse, brain, oral, 6 mg/kg, 6 mg/kg oral, read-out: Brain con.): 129 nM; concentration at 1.5 h ([1]; male, mouse, brain, oral, 6 mg/kg, 6 mg/kg oral, read-out: Cu, brain): 3.22 nM; concentration at 1.5 h ([1]; male, mouse, plasma, oral, 1 mg/kg, 1 mg/kg oral, read-out: Cu, plasma): 0.182 nM; concentration at 1.5 h ([1]; male, mouse, plasma, oral, 1 mg/kg, 1 mg/kg oral, read-out: Plasma con.): 6.74 nM; concentration at 1.5 h ([1]; male, mouse, plasma, oral, 6 mg/kg, 6 mg/kg oral, read-out: Cu, plasma): 4.67 nM; concentration at 1.5 h ([1]; male, mouse, plasma, oral, 6 mg/kg, 6 mg/kg oral, read-out: Plasma con.): 173 nM; Tolerability / toxicity in vivo (in words) (normal rats): generally well tolerated

From US10611751B2, “Dopamine D1 receptor positive allosteric modulators” (Eli Lilly and Company, priority 2018, dated 2020)
